Results from patent EP0648123B1, “INHIBITORS OF PROTEIN TYROSINE-PHOSPHATASE $g(a) FOR TREATMENT OF TUMORS” (NATIONAL UNIVERSITY OF SINGAPORE, priority 1992, dated 1994).
Several values for one entry are separate records, joined by “and”; a condition that tells them apart may be missing. Identical values can stand only once.

Legend:
REF-neo cells = assay: Effect of sodium orthovanadate on proliferation of control cells (cell count); assay type: cell-based, Fischer rat; details: 10% FCS
Description: (§1) 1. Cells were grown on 5 cm petri dishes in DME medium with 10% FCS for 48 h. After 48 h of growth, each dish of α-7, α-21, and α-29 cells contained about 0.4 x 10^5 to 0.6 x 10^5 cells, and each dish of REF-neo cells contained 1.8 x 10^5 cells. The medium was discarded, and fresh medium containing 10% FCS and the indicated concentration (below) of sodium orthovanadate was added to the cells. After 48 h of culture in this medium the cells from two replicate dishes were harvested and counted. […]
(§2) 2. Cells (control cells = REF-neo, PTPα-overexpressing cells = α-21) were grown on 5 cm petri dishes in DME medium with 10% FCS for 48 h. The medium was discarded, and fresh medium containing 10% FCS and the indicated concentration (below) of sodium orthovanadate was added to the cells. After 72 h of culture in this medium the cells from two replicate dishes were harvested and counted. The results are shown in Table 3 below and are essentially the same as in 1 above.

α-7 cells = assay: Effect of sodium orthovanadate on proliferation of PTPα-overexpressing cells (cell count); assay type: cell-based, Fischer rat; details: 10% FCS, 48 h
Description: as §1

α-29 cells = assay: as above; assay type: cell-based, Fischer rat; details: 10% FCS, 48 h
Description: as §1

[1] = tested on: REF α-21 PTPα-overexpressing cells; assay: Tumourigenesis by REF α-21 cells grown and injected with vanadate; assay type: in vivo, nude mice
Description: The α-21 cells were grown in DME medium containing 10% FCS and then in DME medium with 0.1% FCS in the presence of 50 µM sodium orthovanadate for 48 h. The cells were then harvested by trypsinisation, centrifuged to pellet the cells, and the cell pellet resuspended in DME containing 50 µM sodium orthovanadate. Other α-21 cells were grown and prepared in a similar manner, except in the absence of sodium orthovanadate throughout. The resuspended cells (plus or minus vanadate) were subcutaneously injected into nude mice (2 x 10^6 cells/mouse, 4 mice for each treatment), and nine days later the tumour size was measured.

α-21 cells [2] = assay: Effect of sodium orthovanadate on proliferation of PTPα-overexpressing cells (cell count); assay type: cell-based, Fischer rat; details: for cell count, set #3 / cell count, set #2 (+0.1% FCS) / Number of cells/5 cm dish / cell count, set #1 (+10% FCS): α-21; for cell count, set #3 / Number of cells/5 cm dish / cell count, set #1 (+10% FCS): 10% FCS; for cell count, set #3: then another 48 h in 10% FCS without vanadate
Description: as §1, §2
3. PTPα-overexpressing cells (α-21) were grown for 48 h (to about 60% confluency) in DME medium containing 10% FCS. The medium was removed and replaced with medium containing the indicated concentration of sodium orthovanadate (below) and either 10% (sets #1 and #3) or 0.1% FCS (set #2). The cells were cultured for 48 h and counted (sets #1 and 2), or the medium was removed from set #3 and replaced with medium containing 10% FCS without sodium orthovanadate and cultured for another 48 h before counting. […]

α-21 cells [3] = assay: Colony forming ability in soft agar in the presence of sodium orthovanadate; assay type: cell-based, Fischer rat; details: 9 days
Description: The α-21 cells were grown in soft agar in the presence of the indicated concentration of sodium orthovanadate (below) on duplicate dishes. After 9 days the colonies were counted on each dish and the approximate size of the colonies noted. […]

Structure (SMILES): [Na+].[Na+].[Na+].[O]=[V]([O-])([O-])[O-] [Vanadate, sodium orthovanadate]
- Number of cells/5 cm dish (REF-neo cells; vanadate 5 µM, 48 h): 1.10 x 10^6 cells/5 cm dish
- Number of cells/5 cm dish (REF-neo cells; vanadate 5 µM, 72 h): 1.90 x 10^6 cells/5cm dish
- Number of cells/5 cm dish (REF-neo cells; vanadate 30 µM, 48 h): 1.04 x 10^6 cells/5 cm dish
- Number of cells/5 cm dish (REF-neo cells; vanadate 30 µM, 72 h): 1.80 x 10^6 cells/5cm dish
- Number of cells/5 cm dish (REF-neo cells; vanadate 60 µM, 48 h): 9.90 x 10^5 cells/5 cm dish
- Number of cells/5 cm dish (REF-neo cells; vanadate 60 µM, 72 h): 1.60 x 10^6 cells/5cm dish
- Number of cells/5 cm dish (REF-neo cells; vanadate 120 µM, 48 h): 7.60 x 10^5 cells/5 cm dish
- Number of cells/5 cm dish (REF-neo cells; vanadate 120 µM, 72 h): 6.70 x 10^5 cells/5cm dish
- Number of cells/5 cm dish (α-7 cells; vanadate 5 µM): 1.72 x 10^6 cells/5 cm dish
- Number of cells/5 cm dish (α-7 cells; vanadate 30 µM): 1.41 x 10^6 cells/5 cm dish
- Number of cells/5 cm dish (α-7 cells; vanadate 60 µM): 1.18 x 10^6 cells/5 cm dish
- Number of cells/5 cm dish (α-7 cells; vanadate 120 µM): 5.80 x 10^5 cells/5 cm dish
- Number of cells/5 cm dish (α-29 cells; vanadate 5 µM): 1.62 x 10^6 cells/5 cm dish
- Number of cells/5 cm dish (α-29 cells; vanadate 30 µM): 7.20 x 10^5 cells/5 cm dish
- Number of cells/5 cm dish (α-29 cells; vanadate 60 µM): 4.70 x 10^5 cells/5 cm dish
- Number of cells/5 cm dish (α-29 cells; vanadate 120 µM): 2.10 x 10^5 cells/5 cm dish
- average tumour size ([1]; 4 mice, α-21 cells grown and injected with 50 µM sodium orthovanadate, nine days later): 0.618 cm^2
- tumour size ([1]; individual mice, α-21 cells grown and injected with 50 µM sodium orthovanadate, subcutaneous, 2 x 10^6 cells/mouse, nine days later): 0.30 x 0.8 cm = 0.24 cm^2 and 0.70 x 1.5 cm = 1.05 cm^2 and 0.40 x 0.7 cm = 0.28 cm^2 and 0.75 x 1.2 cm = 0.90 cm^2
- tumours smaller than those arising from cells grown and injected in the absence of vanadate ([1]; on average, 50 µM sodium orthovanadate, nine days): 2.6 times
- toxicity to α-21 cells (resumption of proliferation once vanadate is removed) (α-21 cells [2]; comparison of cell numbers in sets #1 and 3): not irreversibly toxic
- cell count, set #3 (α-21 cells [2]; vanadate 5 µM, 48 h): 2.90 x 10^6
- cell count, set #2 (+0.1% FCS) (α-21 cells [2]; vanadate 5 µM, 48 h): 1.18 x 10^6
- Number of cells/5 cm dish (α-21 cells [2]; vanadate 5 µM, 48 h): 1.42 x 10^6 cells/5 cm dish
- cell count, set #1 (+10% FCS) (α-21 cells [2]; vanadate 5 µM, 48 h): 1.30 x 10^6
- Number of cells/5 cm dish (α-21 cells [2]; vanadate 5 µM, 72 h): 1.20 x 10^6 cells/5cm dish
- cell count, set #3 (α-21 cells [2]; vanadate 30 µM, 48 h): 1.46 x 10^6
- cell count, set #2 (+0.1% FCS) (α-21 cells [2]; vanadate 30 µM, 48 h): 5.40 x 10^5
- Number of cells/5 cm dish (α-21 cells [2]; vanadate 30 µM, 48 h): 7.00 x 10^5 cells/5 cm dish
- cell count, set #1 (+10% FCS) (α-21 cells [2]; vanadate 30 µM, 48 h): 5.00 x 10^5
- Number of cells/5 cm dish (α-21 cells [2]; vanadate 30 µM, 72 h): 4.80 x 10^5 cells/5cm dish
- cell count, set #3 (α-21 cells [2]; vanadate 60 µM, 48 h): 9.60 x 10^5
- cell count, set #2 (+0.1% FCS) (α-21 cells [2]; vanadate 60 µM, 48 h): 3.80 x 10^5
- Number of cells/5 cm dish (α-21 cells [2]; vanadate 60 µM, 48 h): 3.70 x 10^5 cells/5 cm dish
- cell count, set #1 (+10% FCS) (α-21 cells [2]; vanadate 60 µM, 48 h): 3.20 x 10^5
- Number of cells/5 cm dish (α-21 cells [2]; vanadate 60 µM, 72 h): 2.60 x 10^5 cells/5cm dish
- cell count, set #3 (α-21 cells [2]; vanadate 120 µM, 48 h): 5.20 x 10^5
- cell count, set #2 (+0.1% FCS) (α-21 cells [2]; vanadate 120 µM, 48 h): 2.00 x 10^5
- Number of cells/5 cm dish (α-21 cells [2]; vanadate 120 µM, 48 h): 1.60 x 10^5 cells/5 cm dish
- cell count, set #1 (+10% FCS) (α-21 cells [2]; vanadate 120 µM, 48 h): 1.80 x 10^5
- Number of cells/5 cm dish (α-21 cells [2]; vanadate 120 µM, 72 h): 1.76 x 10^5 cells/5cm dish
- Number of colonies Average (α-21 cells [3]; vanadate 5 µM): 1260
- Number of colonies Exp 1 (α-21 cells [3]; vanadate 5 µM): 1127
- Number of colonies Exp 2 (α-21 cells [3]; vanadate 5 µM): 1392
- Number of colonies Average (α-21 cells [3]; vanadate 10 µM): 1196
- Number of colonies Exp 1 (α-21 cells [3]; vanadate 10 µM): 1458
- Number of colonies Exp 2 (α-21 cells [3]; vanadate 10 µM): 934
- Number of colonies Average (α-21 cells [3]; vanadate 20 µM): 667
- Number of colonies Exp 1 (α-21 cells [3]; vanadate 20 µM): 692
- Number of colonies Exp 2 (α-21 cells [3]; vanadate 20 µM): 641
- Number of colonies Average (α-21 cells [3]; vanadate 40 µM): 292
- Number of colonies Exp 1 (α-21 cells [3]; vanadate 40 µM): 312
- Number of colonies Exp 2 (α-21 cells [3]; vanadate 40 µM): 271
- Number of colonies Average (α-21 cells [3]; vanadate 80 µM): 82
- Number of colonies Exp 1 (α-21 cells [3]; vanadate 80 µM): 90
- Number of colonies Exp 2 (α-21 cells [3]; vanadate 80 µM): 73
